Assay results published in PMC11234063, “Eugenol and lidocaine inhibit voltage-gated Na^+ channels from dorsal root ganglion neurons with different mechanisms” (Frontiers in Pharmacology, 2024).
Where “and” joins values, the source holds several entries; their conditions need not be identical. Identical values can stand only once. Entries after “also recorded” stand apart in the source; their conditions may differ. Like-named read-outs stand apart in the source and are kept apart here.

How the values were obtained:
Format in all cases: cell-based, rat
[1] = system: TTX-R INa (VGSCs of DRG neurons); settings: EUG 2 mM, LID 1 mM
[2] = system: total INa (VGSCs of DRG neurons); assay: Slow inactivation entry, three-pulse protocol, total INa
[3] = system: TTX-R INa (VGSCs of DRG neurons); assay: Slow inactivation entry, three-pulse protocol, TTX-R INa
[4] = system: TTX-R INa (VGSCs of DRG neurons); settings: EUG 2 mM, LID 1 mM; remark: listed apart in the source
[5] = system: total INa (VGSCs of DRG neurons); assay: INa inactivation time constants during test pulse, total INa
[6] = system: TTX-R INa (VGSCs of DRG neurons); assay: Voltage dependence of Na+ conductance activation (I-V and G-V curves), TTX-R INa; settings: EUG 2 mM
DRG neuron = assay: Action potential firing, current clamp; settings: EUG 1 mM; 1-ms 1-nA depolarizing current injection
[7] = system: total INa (VGSCs of DRG neurons); assay: Inhibition in depolarization time series at 2 and 5 Hz, total INa; settings: EUG 2 mM, LID 1 mM
[8] = system: TTX-R INa (VGSCs of DRG neurons)
[9] = system: persistent total INa (DRG neurons); assay: Persistent total INa at the end of 50-ms depolarizing pulses; settings: EUG 2 mM, LID 1 mM
[10] = system: total INa (VGSCs of DRG neurons); assay: Steady-state inactivation, 100-ms conditioning pre-pulses, total INa; settings: EUG 2 mM, LID 1 mM
[11] = system: TTX-R INa (VGSCs of DRG neurons); remark: listed apart in the source
[12] = system: total INa (VGSCs of DRG neurons); assay: Voltage dependence of Na+ conductance activation (I-V and G-V curves), total INa; settings: EUG 2 mM
[13] = system: total INa (VGSCs naturally expressed on dorsal root ganglion sensory neurons); assay: Dose–response inhibition of total INa peak, whole-cell patch clamp
[14] = individual cells, during exposure to EUG 2 mM or LID 1 mM
[15] = inhibition at all activating voltages

C=CCc1ccc(O)c(OC)c1 [EUG, 4-allyl-2-methoxyphenol]
Shift of the steady-state inactivation curve, on average ([1]; 100-ms conditioning pulse): −5 mV | Max slope-inact [1]: −5.83 ± 0.43 (n = 7) ns mV/e-fold | V1/2-inact [1]: −36.9 ± 2.48 (n = 7) mV | Max slope-inact in individual cells ([1]; individual cells): -5.184 mV/efold and -6.728 mV/efold and -5.779 mV/efold and -3.945 mV/efold and -7.158 mV/efold and -6.792 mV/efold and -5.233 mV/efold | V1/2-inact in individual cells ([1]; individual cells): -28.59 mV and -33.94 mV and -32.48 mV and -34.07 mV and -46.4 mV and -44.79 mV and -37.94 mV | Fast inactivation entry time constant ([2]; EUG 2 mM, LID 1 mM): 792.48 ± 298.530 ^ns ms | Fractional current when P1 = 2 m ([2]; EUG 2 mM, LID 1 mM): 0.82 ± 0.034 ^ns | Percent fast component (slow inactivation entry) ([2]; EUG 2 mM, LID 1 mM): 26.92 ± 4.583 ^ns % | Slow inactivation entry time constant ([2]; EUG 2 mM, LID 1 mM): 1,142.30 ± 246.525 ^ns | Slow inactivation state entry kinetics of INa, individual cells [2, 14]: 713.90 and 1928.00 and 344.50 and 1032.00 and 1066.00 | Fast inactivation entry time constant ([3]; EUG 2 mM, LID 1 mM): 76.58 ± 30.563^ns ms | Fractional current when P1 = 2 m ([3]; EUG 2 mM, LID 1 mM): 0.93 ± 0.028^ns | Percent fast component (slow inactivation entry) ([3]; EUG 2 mM, LID 1 mM): 47.56 ± 16.257^ns % | Slow inactivation entry time constant ([3]; EUG 2 mM, LID 1 mM): 631.05 ± 282.320^ns | Slow inactivation state entry kinetics of INa, individual cells [3, 14]: 558.80 and 167.30 and 405.40 and 711.30 and 255.80 | Fractional inhibition, 2 Hz, 20th pulse [4]: 0.44 ± 0.064 (n = 6) | Fractional inhibition, 5 Hz, 20th pulse [4]: 0.49 ± 0.061 (n = 6) | Fractional current after blockade, 2 Hz, 1st pulse, individual cells ([4]; individual cells): 0.62 and 0.6 and 0.47 and 0.55 | Fractional current after blockade, 2 Hz, 20th pulse, individual cells ([4]; individual cells): 0.56 and 0.48 and 0.36 and 0.46 | Fractional current after blockade, 5 Hz, 1st pulse, individual cells ([4]; individual cells): 0.75 and 0.63 and 0.55 and 0.51 | Fractional current after blockade, 5 Hz, 20th pulse, individual cells ([4]; individual cells): 0.66 and 0.54 and 0.36 and 0.43 | Effect on inactivation time constants [5]: unaffected | Max slope-act ([6]; LID 1 mM): 6.4 ± 0.4 (n = 7) mV/e-fold | V1/2-act ([6]; LID 1 mM): −11.5 ± 1.96 (n = 7) ns mV | Effect on reversal potential of the currents [6, 15]: without significantly affecting | Max slope-act in individual cells ([6]; individual cells, LID 1 mM): 6.818 mV/efold and 6.311 mV/efold and 5.452 mV/efold and 4.894 mV/efold and 8.267 mV/efold and 6.510 mV/efold and 6.698 mV/efold | V1/2-act in individual cells ([6]; individual cells, LID 1 mM): -9.916 mV and -13.33 mV and -16.67 mV and -10.24 mV and -5.511 mV and -5.684 mV and -19.13 mV | Effect on action potential firing (DRG neuron): promptly inhibits action potential firing; also recorded: prevents neurons from firing action potentials | Fractional inhibition, 2 Hz, 1st pulse [7]: 0.53 ± 0.049 (n = 9) | Fractional inhibition, 5 Hz, 1st pulse [7]: 0.49 ± 0.056 (n = 8) | Fractional current after blockade, 2 Hz, 1st pulse, individual cells ([7]; individual cells): 0.40 and 0.52 and 0.58 and 0.37 and 0.28 and 0.50 and 0.730 and 0.29 and 0.53 | Fractional current after blockade, 2 Hz, 20th pulse, individual cells ([7]; individual cells): 0.36 and 0.54 and 0.56 (2×) and 0.34 and 0.15 and 0.49 and 0.74 and 0.26 | Fractional current after blockade, 5 Hz, 1st pulse, individual cells ([7]; individual cells): 0.4 and 0.56 and 0.58 and 0.35 | Fractional current after blockade, 5 Hz, 20th pulse, individual cells ([7]; individual cells): 0.31 (2×) and 0.47 and 0.54 | Reversibility of inhibition after drug washout [8]: fully reversible | Dose response curves' data, Average (fractional current) ([8]; drug at 0.1 mM): 0.96 | Dose response curves' data, Average (fractional current) ([8]; drug at 0.3 mM): 0.92 | Dose response curves' data, Average (fractional current) ([8]; drug at 1 mM): 0.85 | Dose response curves' data, Average (fractional current) ([8]; drug at 3 mM): 0.34 | Dose response curves' data, Average (fractional current) ([8]; drug at 10 mM): 0.14 | Dose response curves' data, Average (fractional current) ([8]; drug at 30 mM): 0.00 | IC50 ([8]; holding −110 mV, test +20 mV): 2210 ± 80 µM | Time series of INa blockade, Average (normalized current) ([8]; time 15 sec, drug exposure): 0.62 | Time series of INa blockade, Average (normalized current) ([8]; time 20 sec, drug exposure): 0.62 | Time series of INa blockade, Average (normalized current) ([8]; time 25 sec, drug exposure): 0.63 | Time series of INa blockade, Average (normalized current) ([8]; time 30 sec, recovery): 1.00 | Time series of INa blockade, Average (normalized current) ([8]; time 35 sec, recovery): 1.04 | Time series of INa blockade, Average (normalized current) ([8]; time 40 sec, recovery): 1.03 | Inhibition of persistent total INa after 50-ms depolarization [9]: remarkably inhibited; also recorded: effectively inhibits | Max slope-inact [10]: −12.2 ± 10.7 (n = 9) ns mV/e-fold | V1/2-inact [10]: −63.85 ± 2.92 (n = 9) mV | Max slope-inact in individual cells ([10]; individual cells): -14.8 mV/efold and -10.65 mV/efold and -13.47 mV/efold and -10.21 mV/efold and -17.93 mV/efold and -9.046 mV/efold and -7.985 mV/efold and -14.87 mV/efold and -11.22 mV/efold | V1/2-inact in individual cells ([10]; individual cells): -63.75 mV and -57.14 mV and -69.63 mV and -55.48 mV and -75.79 mV and -59.29 mV and -57.64 mV and -78.67 mV and -57.24 mV | Effect on inactivation time constants [11]: unaffected | Max slope-act ([12]; LID 1 mM): 5.4 ± 0.41 (n = 9) mV/e-fold | V1/2-act ([12]; LID 1 mM): −13.8 ± 2.18 (n = 9) mV | Effect on reversal potential of the currents [12, 15]: without significantly affecting | Max slope-act in individual cells ([12]; individual cells, LID 1 mM): 5.526 mV/efold and 5.494 mV/efold and 4.967 mV/efold and 6.616 mV/efold and 5.996 mV/efold and 6.156 mV/efold and 4.306 mV/efold and 2.717 mV/efold and 6.496 mV/efold | V1/2-act in individual cells ([12]; individual cells, LID 1 mM): -10.73 mV and -7.173 mV and -19.64 mV and -5.137 mV and -8.98 mV and -24.01 mV and -14.91 mV and -13.00 mV and -20.84 mV | Pre-inhibition of total INa ([13]; EUG at 1.3 mM): ~25% | Time to inhibition of INa upon addition ([13]; fast single-cell superfusion, 0.2 Hz time series): less than 5 s | Reversibility of inhibition after drug washout ([13]; total INa): fully reversible | Dose response curves' data, Average (fractional current), EUG (LID 0.5 mM) ([13]; total INa, EUG 0.1 mM in the presence of LID 0.5 mM): 0.97 | Dose response curves' data, Average (fractional current), EUG (LID 0.5 mM) ([13]; total INa, EUG 0.3 mM in the presence of LID 0.5 mM): 0.85 | Dose response curves' data, Average (fractional current), EUG (LID 0.5 mM) ([13]; total INa, EUG 1 mM in the presence of LID 0.5 mM): 0.60 | Dose response curves' data, Average (fractional current), EUG (LID 0.5 mM) ([13]; total INa, EUG 3 mM in the presence of LID 0.5 mM): 0.46 | Dose response curves' data, Average (fractional current), EUG (LID 0.5 mM) ([13]; total INa, EUG 10 mM in the presence of LID 0.5 mM): 0.10 | Dose response curves' data, Average (fractional current) ([13]; total INa, drug at 0.001 mM): 1.00 | Dose response curves' data, Average (fractional current) ([13]; total INa, drug at 0.1 mM): 0.98 | Dose response curves' data, Average (fractional current) ([13]; total INa, drug at 0.3 mM): 0.93 | Dose response curves' data, Average (fractional current) ([13]; total INa, drug at 1 mM): 0.86 | Dose response curves' data, Average (fractional current) ([13]; total INa, drug at 3 mM): 0.36 | Dose response curves' data, Average (fractional current) ([13]; total INa, drug at 10 mM): 0.07 | Dose response curves' data, Average (fractional current) ([13]; total INa, drug at 30 mM): 0.01 | IC50 ([13]; total INa, holding −110 mV, test +20 mV, drug alone): 2270 ± 75 µM | Time series of INa blockade, Average (normalized current) ([13]; total INa, time 15 sec, drug exposure): 0.55 | Time series of INa blockade, Average (normalized current) ([13]; total INa, time 20 sec, drug exposure): 0.54 | Time series of INa blockade, Average (normalized current) ([13]; total INa, time 25 sec, drug exposure): 0.54 | Time series of INa blockade, Average (normalized current) ([13]; total INa, time 30 sec, recovery): 0.96 | Time series of INa blockade, Average (normalized current) ([13]; total INa, time 35 sec, recovery): 0.99 | Time series of INa blockade, Average (normalized current) ([13]; total INa, time 40 sec, recovery): 0.99

C/C=C\c1ccc(O)c(OC)c1 [IEUG]
Dose response curves' data, Average (fractional current) ([13]; total INa, drug at 3 mM): 0.40 | Dose response curves' data, Average (fractional current) ([13]; total INa, drug at 10 mM): 0.02
